Test results published in ChEMBL document CHEMBL5550117, “Dual-target inhibitors based on ERα: Novel therapeutic approaches for endocrine resistant breast cancer” (Eur J Med Chem, 2024).

Assays:
MCF7 [1] = assay: Anti-clonogenic activity in human MCF7 cells assessed as reduction of colony formation incubated for 2 weeks by crystal violet staining based assay; settings: MCF7, 336 h
MCF7 [2] = assay: Antiproliferative activity against human MCF7 cells assessed as reduction in cell viability incubated for 48 hrs by MTT assay; settings: MCF7, 48 h
[3] = Inhibition of NF-kappaB pathway in human MCF7 cells assessed as reduction in TNFalpha level by RT-PCR analysis
[4] = biological target: T1, Protein deacetylase HDAC6 (Homo sapiens, UniProt Q9UBN7); assay: Inhibition of HDAC6 (unknown origin)
T1 sequence (Q9UBN7 whole entry): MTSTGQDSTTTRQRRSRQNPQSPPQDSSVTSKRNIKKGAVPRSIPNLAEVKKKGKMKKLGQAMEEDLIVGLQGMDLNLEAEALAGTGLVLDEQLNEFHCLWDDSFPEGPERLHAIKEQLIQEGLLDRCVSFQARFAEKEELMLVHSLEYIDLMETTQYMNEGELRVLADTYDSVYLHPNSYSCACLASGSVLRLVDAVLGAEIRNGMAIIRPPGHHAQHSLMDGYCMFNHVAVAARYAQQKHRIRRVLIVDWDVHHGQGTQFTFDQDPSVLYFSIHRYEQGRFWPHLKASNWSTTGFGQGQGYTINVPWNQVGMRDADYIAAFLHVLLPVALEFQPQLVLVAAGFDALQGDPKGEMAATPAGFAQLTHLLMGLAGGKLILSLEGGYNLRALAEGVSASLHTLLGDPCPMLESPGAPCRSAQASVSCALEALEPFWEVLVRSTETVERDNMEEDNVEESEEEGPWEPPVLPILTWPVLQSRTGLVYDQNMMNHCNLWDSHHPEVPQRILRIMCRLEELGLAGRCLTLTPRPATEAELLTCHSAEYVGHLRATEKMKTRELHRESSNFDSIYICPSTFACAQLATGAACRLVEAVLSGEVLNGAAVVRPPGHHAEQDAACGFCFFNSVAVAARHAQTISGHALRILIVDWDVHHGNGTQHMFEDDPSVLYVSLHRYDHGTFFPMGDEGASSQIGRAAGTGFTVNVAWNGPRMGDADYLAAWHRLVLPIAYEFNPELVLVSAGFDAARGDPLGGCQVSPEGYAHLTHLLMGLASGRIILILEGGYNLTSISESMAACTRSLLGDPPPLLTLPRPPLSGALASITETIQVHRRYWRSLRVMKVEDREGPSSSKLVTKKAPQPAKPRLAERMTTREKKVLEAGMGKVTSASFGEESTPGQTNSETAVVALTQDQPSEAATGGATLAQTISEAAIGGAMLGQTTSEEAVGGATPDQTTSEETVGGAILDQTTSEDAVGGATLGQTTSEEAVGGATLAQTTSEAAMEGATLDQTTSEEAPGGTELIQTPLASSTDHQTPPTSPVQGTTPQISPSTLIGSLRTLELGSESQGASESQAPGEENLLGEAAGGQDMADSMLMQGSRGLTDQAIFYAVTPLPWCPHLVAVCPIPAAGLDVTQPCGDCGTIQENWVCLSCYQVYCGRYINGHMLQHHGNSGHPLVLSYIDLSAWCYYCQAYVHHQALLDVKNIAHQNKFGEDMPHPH

Row | IC50 (MCF7 [1]) | IC50 (MCF7 [2]) | IC50 [3] | IC50 [4] | Compound
1 | 2 µM | 0.5 µM | 4 µM |  | CCOC(=O)/C=C/C(=O)NCCOc1ccc(C(=O)c2c(-c3ccc(O)cc3)sc3cc(O)ccc23)cc1
2 |  |  |  | 2.2 µM | CC/C(=C(\c1ccccc1)c1ccc(OCCN(C)Cc2ccc(NC(=O)CCCCCCC(=O)NO)cc2)cc1)c1ccccc1
